Data as given in PubChem BioAssay (NCI).
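These data come from cells grown in 96-well plates and exposed to compound for 48 hours at five concentrations. At the GI50, growth is halved. TGI: concentration producing complete growth inhibition.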

tested on: SNB-78 CNS; assay: NCI tumour cell line growth inhibition, 48 h

Compound | TGI [µM] | GI50 [µM]
CCC1CN2CCc3cc(OC)c(OC)cc3C2CC1CC1c2cc(OC)c(OC)cc2CCN1C(=O)C1CCCN1 (centres undefined) | > 100 | 
CC(C(=O)c1ccc(Cl)cc1)/C(=N/NC(=O)NN)C(=O)Nc1cccc(C(F)(F)F)c1 (centres undefined) | > 100 | 
CCOP(=O)(OCC)C(C(=O)OC)C(=O)C(=O)Nc1ccc(Cl)cc1Cl (centres undefined) | > 100 | 
COc1cccc(/C=N/[N-]C(=O)c2ccncc2)c1[O-].COc1cccc(/C=N/[N-]C(=O)c2ccncc2)c1[O-].[O]=[U](=[O])([OH2+])[OH2+] | > 100 | > 87.7
ClC(Cl)=C1C(=C(Cl)Cl)C(Cl)(Cl)C1(Cl)Cl | 7.71 | 
CC(C)(C)c1ccc2c(c1)S(=O)(=O)Nc1ccc(Cl)cc1NS(=O)(=O)c1cc(C(C)(C)C)ccc1OCCOCCOCCO2 | > 100 | 
CO[C@H]1Nc2c(ccc(C)c2O)C(=O)N2C=C(/C=C/C(N)=O)C[C@@H]12 | 18.4 | 
CCNC(=O)/C(=C/c1ccc(OC)cc1)c1cc(OC)c(OC)c(OC)c1 | > 100 | 
N#CC(=Nc1ccccc1N(C(=O)c1ccccc1)C(=O)c1ccccc1)c1ccccc1 | > 100 | 
COc1c(C)n(CCO)ccc1=O | > 100 | 
COC(=O)C(=O)C(C(C)=O)C(=O)NCc1ccc(OC)c(OC)c1 (centres undefined) | > 100 | 
Nc1c(-c2ccccc2-c2c(N)[n+]([O-])c3ccccc3[n+]2[O-])[n+]([O-])c2ccccc2[n+]1[O-] | > 100 | 
CCOC(=O)NC(=O)c1cn(C(CC)COC(=O)NCCCCCCNC(=O)OCC(CC)n2cc(C(=O)NC(=O)OCC)c(=O)[nH]c2=O)c(=O)[nH]c1=O (centres undefined) | > 100 | 
O=C(CC(=O)C1CCOC1=O)C(=O)Nc1cccc(Cl)c1 (centres undefined) | > 100 | 
CCN1c2ccccc2-c2c3c1cc(C)cc3c1ccccc1[n+]2CC | 12 | 
Cc1cccc(C2=C/C(=C(\SS/C(C(=O)c3ccc(OCC(=O)O)c(Cl)c3Cl)=C3\C=C(c4cccc(C)c4)SS3)C(=O)c3ccc(OCC(=O)O)c(Cl)c3Cl)SS2)c1 | 80.6 | 
O=C(Cc1nc2c3c(ccc2[nH]c1=O)C(=O)c1ccccc1C3=O)C(=O)Nc1ccccc1[N+](=O)[O-] | 16.5 | 
CC1=C(C#N)C(=O)CC(c2ccc(Cl)cc2)N(C)N1 (centres undefined) | > 100 | 
Nc1nc(-c2ccc(Cl)c([N+](=O)[O-])c2)cs1 | > 100 | 
CN(C)C(=S)SSC(=S)N(C)C | > 100 | 
O=C(N/C(=C\c1ccc([N+](=O)[O-])cc1)c1nc2ccccc2[nH]1)c1ccccc1 | > 100 | 
COC(=O)/C([Se]c1c(C)cc(C)cc1C)=C(/[Se]c1c(C)cc(C)cc1C)C(=O)OC | > 100 | 
NC(=O)C(=O)CC(=O)c1ccccc1NC1=CC(=O)C(=O)c2ccccc21 | > 100 | 
Cc1cc2c(c(C(N)=O)c1C)-c1ccccc1C2=O | > 100 | 
COC(=O)/C(=N/O)C(C(=O)C=C(C)C)C(=O)C(=O)Nc1nc2ccc([N+](=O)[O-])cc2s1 (centres undefined) | > 100 | 
Cc1[nH]c2ccccc2c1C1Cc2ccccc2N1C(=O)C#Cc1ccc([N+](=O)[O-])cc1 (centres undefined) | > 100 | 
CCOC(=O)NC(=O)c1cn(C2CCCCC2)c(=O)[nH]c1=O | > 100 | 
Cn1c(=O)nc2n(-c3cc(C(F)(F)F)cc(C(F)(F)F)c3)c3ccccc3nc-2c1=O | > 100 | 

tested on: P388 leukemia; assay: NCI tumour cell line growth inhibition, 48 h

Compound | TGI [µM]
CO[C@H]1Nc2c(ccc(C)c2O)C(=O)N2C=C(/C=C/C(N)=O)C[C@@H]12 | 0.283

tested on: LXFL 529 NSCLC; assay: NCI tumour cell line growth inhibition, 48 h

Compound | TGI [µM] | GI50 [µM]
Nc1ccccc1C(=O)/C=C/c1c(O)ccc2ccccc12 | > 100 | 
CCC1CN2CCc3cc(OC)c(OC)cc3C2CC1CC1c2cc(OC)c(OC)cc2CCN1C(=O)C1CCCN1 (centres undefined) | 64.4 | 
CC(C(=O)c1ccc(Cl)cc1)/C(=N/NC(=O)NN)C(=O)Nc1cccc(C(F)(F)F)c1 (centres undefined) | > 100 | 
CCOP(=O)(OCC)C(C(=O)OC)C(=O)C(=O)Nc1ccc(Cl)cc1Cl (centres undefined) | > 100 | 
CC(C)=C1CCC(CN(C)C)C1=O (centres undefined) | 25.4 | 
COc1cccc(/C=N/[N-]C(=O)c2ccncc2)c1[O-].COc1cccc(/C=N/[N-]C(=O)c2ccncc2)c1[O-].[O]=[U](=[O])([OH2+])[OH2+] | > 100 | > 33.7
ClC(Cl)=C1C(=C(Cl)Cl)C(Cl)(Cl)C1(Cl)Cl | 2.47 | 
CCNC(=O)/C(=C/c1ccc(OC)cc1)c1cc(OC)c(OC)c(OC)c1 | > 100 | 
N#CC(=Nc1ccccc1N(C(=O)c1ccccc1)C(=O)c1ccccc1)c1ccccc1 | > 100 | 
COc1c(C)n(CCO)ccc1=O | > 100 | 
COC(=O)C(=O)C(C(C)=O)C(=O)NCc1ccc(OC)c(OC)c1 (centres undefined) | > 100 | 
Nc1c(-c2ccccc2-c2c(N)[n+]([O-])c3ccccc3[n+]2[O-])[n+]([O-])c2ccccc2[n+]1[O-] | > 100 | 
CCOC(=O)NC(=O)c1cn(C(CC)COC(=O)NCCCCCCNC(=O)OCC(CC)n2cc(C(=O)NC(=O)OCC)c(=O)[nH]c2=O)c(=O)[nH]c1=O (centres undefined) | > 100 | 
O=C(CC(=O)C1CCOC1=O)C(=O)Nc1cccc(Cl)c1 (centres undefined) | > 100 | 
CCN1c2ccccc2-c2c3c1cc(C)cc3c1ccccc1[n+]2CC | 1.86 | 
CC(=O)N1CCN(c2ccc(OCC3COC(Cn4ccnc4)(c4ccc(Cl)cc4Cl)O3)cc2)CC1 (centres undefined) | > 100 | 
O=C(Cc1nc2c3c(ccc2[nH]c1=O)C(=O)c1ccccc1C3=O)C(=O)Nc1ccccc1[N+](=O)[O-] | 18 | 
CC1=C(C#N)C(=O)CC(c2ccc(Cl)cc2)N(C)N1 (centres undefined) | > 100 | 
Nc1nc(-c2ccc(Cl)c([N+](=O)[O-])c2)cs1 | > 100 | 
COc1cc(/C=C2\[C@H]3c4c(c(OC)c(C)c(OC)c4OC)CC(C(=O)N2Cc2ccccc2)N3C)c(OC)c(C)c1OC | 43.9 | 
CN(C)C(=S)SSC(=S)N(C)C | > 100 | 
O=C(N/C(=C\c1ccc([N+](=O)[O-])cc1)c1nc2ccccc2[nH]1)c1ccccc1 | > 100 | 
COC(=O)/C([Se]c1c(C)cc(C)cc1C)=C(/[Se]c1c(C)cc(C)cc1C)C(=O)OC | > 100 | 
NC(=O)C(=O)CC(=O)c1ccccc1NC1=CC(=O)C(=O)c2ccccc21 | > 100 | 
Cc1cc2c(c(C(N)=O)c1C)-c1ccccc1C2=O | > 100 | 
COC(=O)/C(=N/O)C(C(=O)C=C(C)C)C(=O)C(=O)Nc1nc2ccc([N+](=O)[O-])cc2s1 (centres undefined) | > 100 | 
Cc1ccccc1C1=[N+]([O-])c2ccc(Cl)cc2C1=O | 24.3 | 
Cc1[nH]c2ccccc2c1C1Cc2ccccc2N1C(=O)C#Cc1ccc([N+](=O)[O-])cc1 (centres undefined) | > 100 | 
